Measured values: patent US7994185B2, “Benzene sulfonamide thiazole and oxazole compounds” (Glaxo Smith Kline LLC, priority 2008, dated 2011)
Counter-ions that a name gives are not always drawn. Like-named read-outs stand apart in the source and are kept apart here.

Assays:
[1] = molecular target: T1, BRAFV600E full-length (amino acids 2-766) (Homo sapiens, UniProt P15056, V600E); assay: B-Raf Accelerated MEK ATPase assay (BRAMA); assay type: biochemical; settings: categorized
T1 construct: His6-tagged BRAFV600E full-length (amino acids 2-766); His6; made in house; host or cells: baculovirus expression system (insect cells)
Method: Compounds of the present invention were tested for B-Raf protein serine kinase inhibitory activity in a B-Raf Accelerated MEK ATPase assay (BRAMA). […] The BRAMA assay is a high sensitivity assay which measures an intrinsic MEK-mediated ATP hydrolysis uncoupled from downstream ERK phosphorylation by coupling the formation of ADP to NADH oxidation through the enzymes pyruvate kinase and lactate dehydrogenase. When ADP production is initiated by addition of catalytic amounts of an activated Raf enzyme and non-phosphorylated MEK, one observes robust ADP production concomitant with Raf-mediated phosphorylation of MEK. The method is disclosed in: C. Rominger, M. Schaber, E. May. Assay for B-Raf Activity Based on Intrinsic MEK ATPase Activity.

[2] = test system: Human colon tumor cells (Colo205); assay: Cell growth inhibition assay (CellTiter-Glo), Colo205; assay type: cell-based
Method: Human colon tumor cells (Colo205) were cultured in RPMI (Mediatech 50-020-PB) containing 10% FBS and 1% penicillin-streptomycin.
The next day, compounds were diluted as follow: For 96-well assays, 13.5 μL of compound in DMSO were diluted using nine (9) serial 1:3 dilutions of 4.5 μL in 9 μL of DMSO. Medium (270 μL/well of RPMI with 10% FBS and 1% penicillin-streptomycin) was added to the plates. Aliquots (7 μL) were added to cells in the final assay giving a final DMSO concentration of 0.2%. For 384-well assays, 15 μL of compound in DMSO were diluted using nine (9) serial 1:3 dilutions of 5 μL in 10 μL of DMSO, followed by a further dilution of 5 μL of compound with 95 μL of medium, of which 2 μL were added to cells in the final assay giving a final DMSO concentration of 0.2%. Cells were incubated at 37° C., 5% CO2 for 3 days.
Total ATP was measured (as a surrogate estimate of cell number) using CellTiter-Glo® reagent (Promega G7571). Briefly, plates were removed from the incubator and allowed to equilibrate to room temperature for 30 minutes. CellTiter-Glo® (25 μL or 55 μL for 384-well or 96-well assays, respectively) reagent was added to each well and plates were shaken on an orbital plate shaker for 2 minutes. Plates were incubated without shaking for a further 30 minutes and read on an LJL Analyst GT reader in luminometer mode with an integration time of 0.5 seconds per well. Percent inhibition of cell growth was calculated relative to DMSO vehicle-treated control wells.

[3] = test system: Human melanoma cancer cells (SK-MEL-28); assay: Cell growth inhibition assay (CellTiter-Glo), SK-MEL-28; assay type: cell-based
[4] = B-Raf Activity, Table 1a, highest pIC50 for the one or more runs
[5] = B-Raf pIC50, Table 1b, later runs, average pIC50 for the one or more runs
[6] = COLO 205, 72 h, Table 2a, 3 days incubation, read-out: Activity in Colo205 Tumor Cells
[7] = COLO 205, Table 2b, later runs, average for the one or more runs, categorized, read-out: IC50 for Colo205
[8] = SK-MEL-28, 72 h, Table 3a, 3 days incubation, read-out: Activity in SK-MEL-28 Tumor Cells
[9] = SK-MEL-28, Table 3b, later runs, average for the one or more runs, categorized, read-out: IC50 for SK-MEL-28
[10] = Table 1b, later runs, average pIC50 for the one or more runs, read-out: B-Raf pIC50 (converted)

T1 sequence (P15056 2-766 V600E): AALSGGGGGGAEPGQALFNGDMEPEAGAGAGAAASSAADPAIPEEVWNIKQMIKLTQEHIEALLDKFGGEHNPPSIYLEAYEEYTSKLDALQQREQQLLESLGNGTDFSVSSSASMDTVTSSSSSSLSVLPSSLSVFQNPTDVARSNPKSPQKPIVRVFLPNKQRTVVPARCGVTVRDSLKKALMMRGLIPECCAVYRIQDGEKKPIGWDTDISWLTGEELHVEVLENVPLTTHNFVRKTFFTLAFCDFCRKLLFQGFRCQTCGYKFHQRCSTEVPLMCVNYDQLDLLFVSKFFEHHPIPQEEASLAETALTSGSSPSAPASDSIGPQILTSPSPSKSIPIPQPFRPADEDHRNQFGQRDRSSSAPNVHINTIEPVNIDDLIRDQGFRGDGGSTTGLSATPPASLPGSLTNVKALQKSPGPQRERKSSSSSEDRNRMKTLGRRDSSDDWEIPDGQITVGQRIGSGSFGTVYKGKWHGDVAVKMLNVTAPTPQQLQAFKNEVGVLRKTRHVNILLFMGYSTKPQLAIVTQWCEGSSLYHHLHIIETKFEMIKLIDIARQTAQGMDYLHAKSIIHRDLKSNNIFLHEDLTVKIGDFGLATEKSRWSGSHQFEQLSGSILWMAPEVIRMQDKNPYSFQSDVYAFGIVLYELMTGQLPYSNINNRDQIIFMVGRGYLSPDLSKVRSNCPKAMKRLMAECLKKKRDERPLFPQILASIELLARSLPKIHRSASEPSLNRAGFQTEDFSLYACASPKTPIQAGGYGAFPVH

IC50 [1, 10]	Structure (SMILES)	IC50 [1, 4]	IC50 [1, 5]	IC50 [2, 6]	IC50 [2, 7]	IC50 [3, 8]	IC50 [3, 9]
	CC(=O)NCCNc1nccc(-c2sc(C(C)C)nc2-c2ccc(F)c(NS(=O)(=O)c3c(F)cccc3F)c2)n1 [Example 183]	< 100 nM	31.6 to 1000 nM	> 1000 nM	1000 to 10000 nM	> 1000 nM	1000 to 10000 nM
	CC(C)(C)c1nc(-c2cccc(NS(=O)(=O)c3cc(F)ccc3F)c2F)c(-c2ccnc(NCC(F)F)n2)s1 [Example 177]	< 100 nM	≤ 3.16 nM	< 100 nM	1000 to 10000 nM	< 100 nM	1000 to 10000 nM
3.16 to 31.6 nM	CC(C)(C)c1nc(-c2cccc(NS(=O)(=O)c3ccccc3)c2F)c(-c2ccnc(N)n2)s1 [Example 219, N-{3-[5-(2-amino-4-pyrimidinyl)-2-(1,1-dimethylethyl)-1,3-thiazol-4-yl]-2-fluorophenyl}benzenesulfonamide]				< 100 nM		< 100 nM
	CC(C)CNc1nccc(-c2sc(C3CCOCC3)nc2-c2ccc(F)c(NS(=O)(=O)c3cc(F)ccc3F)c2)n1 [Example 69, 2,5-Difluoro-N-{2-fluoro-5-[5-{2-[(2-methylpropyl)amino]-4-pyrimidinyl}-2-(tetrahydro-2H-pyran-4-yl)-1,3-thiazol-4-yl]phenyl}benzenesulfonamide]	< 100 nM	≤ 3.16 nM	100 to 1000 nM	100 to 1000 nM	100 to 1000 nM	100 to 1000 nM
	Cc1cccc(S(=O)(=O)Nc2cccc(-c3nc(C(C)(C)C)sc3-c3ccnc(N)n3)c2F)c1 [Example 147]	< 100 nM	31.6 to 1000 nM	100 to 1000 nM	100 to 1000 nM	100 to 1000 nM	100 to 1000 nM
	CCNc1nccc(-c2sc(C(C)C)nc2-c2ccc(F)c(NS(=O)(=O)c3c(F)cccc3F)c2)n1 [Example 9, N-{5-[5-[2-(Ethylamino)-4-pyrimidinyl]-2-(1-methylethyl)-1,3-thiazol-4-yl]-2-fluorophenyl}-2,6-difluorobenzenesulfonamide]	100 to 1000 nM	31.6 to 1000 nM	> 1000 nM	1000 to 10000 nM	> 1000 nM	1000 to 10000 nM
	Cn1nccc1S(=O)(=O)Nc1cccc(-c2nc(C(C)(C)C)sc2-c2ccnc(N)n2)c1F [Example 282, N-{3-[5-(2-amino-4-pyrimidinyl)-2-(1,1-dimethylethyl)-1,3-thiazol-4-yl]-2-fluorophenyl}-1-methyl-1H-pyrazole-5-sulfonamide hydrochloride]		31.6 to 1000 nM		100 to 1000 nM		1000 to 10000 nM
	CC(C)(C)c1nc(-c2cccc(NS(=O)(=O)c3ccsc3)c2F)c(-c2ccnc(N)n2)s1 [Example 233, N-{3-[5-(2-amino-4-pyrimidinyl)-2-(1,1-dimethylethyl)-1,3-thiazol-4-yl]-2-fluorophenyl}-3-thiophenesulfonamide]		≤ 3.16 nM		< 100 nM		< 100 nM
	COc1ccc(F)cc1S(=O)(=O)Nc1cccc(-c2nc(C(C)C)sc2-c2ccnc(NC3CCN(S(C)(=O)=O)CC3)n2)c1 [Example 150]	100 to 1000 nM	31.6 to 1000 nM	100 to 1000 nM	100 to 1000 nM	100 to 1000 nM	100 to 1000 nM
	CC(C)c1nc(-c2cccc(NS(=O)(=O)c3nccs3)c2F)c(-c2ccnc(NC3CCN(S(C)(=O)=O)CC3)n2)s1 [Example 40, N-{2-Fluoro-3-[2-(1-methylethyl)-5-(2-{[1-(methylsulfonyl)-4-piperidinyl]amino}-4-pyrimidinyl)-1,3-thiazol-4-yl]phenyl}-1,3-thiazole-2-sulfonamide]	< 100 nM	≤ 3.16 nM	100 to 1000 nM	100 to 1000 nM	100 to 1000 nM	100 to 1000 nM
	O=S(=O)(Nc1cccc(-c2nc(N3CCOCC3)sc2-c2ccnc(NCCO)n2)c1F)c1cc(F)ccc1F [Example 208]	< 100 nM	≤ 3.16 nM	< 100 nM	< 100 nM	< 100 nM	< 100 nM
	CC(C)c1nc(-c2ccc(F)c(NS(=O)(=O)c3cc(F)ccc3F)c2)c(-c2ccnc(NCCN3CCCCC3)n2)s1 [Example 131]	< 100 nM	31.6 to 1000 nM	> 1000 nM		> 1000 nM	1000 to 10000 nM
	CC(C)c1nc(-c2ccc(F)c(NS(=O)(=O)c3cc(F)ccc3F)c2)c(-c2ccnc(N[C@H]3CCCN(C(=O)OC(C)(C)C)C3)n2)s1 [Example 133]	100 to 1000 nM	31.6 to 1000 nM	> 1000 nM	1000 to 10000 nM	> 1000 nM	1000 to 10000 nM
	CC(C)Nc1nccc(-c2sc(C(C)(C)C)nc2-c2cccc(NS(=O)(=O)c3c(F)cccc3F)c2F)n1 [Example 135]	< 100 nM	≤ 3.16 nM	100 to 1000 nM	100 to 1000 nM	< 100 nM	< 100 nM
	Nc1nccc(-c2sc(C3CCOCC3)nc2-c2cccc(NS(=O)(=O)c3ccoc3)c2Cl)n1 [Example 265, N-{3-[5-(2-amino-4-pyrimidinyl)-2-(tetrahydro-2H-pyran-4-yl)-1,3-thiazol-4-yl]-2-chlorophenyl}-3-furansulfonamide]		≤ 3.16 nM				< 100 nM
	CN(C)c1nc(-c2cccc(NS(=O)(=O)c3c(F)cccc3F)c2)c(-c2ccnc(N)n2)s1 [Example 112, N-{3-[5-(2-Amino-4-pyrimidinyl)-2-(dimethylamino)-1,3-thiazol-4-yl]phenyl}-2,6-difluorobenzenesulfonamide]	100 to 1000 nM	31.6 to 1000 nM		1000 to 10000 nM		
	C[C@@H](O)CNc1nccc(-c2sc(C(C)(C)C)nc2-c2cccc(NS(=O)(=O)c3c(F)cccc3F)c2F)n1 [Example 290, N-{3-[2-(1,1-dimethylethyl)-5-(2-{[(2R)-2-hydroxypropyl]amino}-4-pyrimidinyl)-1,3-thiazol-4-yl]-2-fluorophenyl}-2,6-difluorobenzenesulfonamide]		≤ 3.16 nM				
	CC(C)(C)c1nc(-c2cccc(NS(=O)(=O)c3ccoc3)c2Cl)c(-c2ccncn2)s1 [Example 268, N-{2-chloro-3-[2-(1,1-dimethylethyl)-5-(4-pyrimidinyl)-1,3-thiazol-4-yl]phenyl}-3-furansulfonamide]		≤ 3.16 nM				
	Nc1nccc(-c2sc(C3CCNCC3)nc2-c2cccc(NS(=O)(=O)c3ccoc3)c2F)n1 [Example 324, N-{3-[5-(2-amino-4-pyrimidinyl)-2-(4-piperidinyl)-1,3-thiazol-4-yl]-2-fluorophenyl}-3-furansulfonamide]		≤ 3.16 nM				
3.16 to 31.6 nM	Cc1nccc(-c2sc(C3CCNCC3)nc2-c2cccc(NS(=O)(=O)c3ccoc3)c2F)n1 [Example 323, N-{2-fluoro-3-[5-(2-methyl-4-pyrimidinyl)-2-(4-piperidinyl)-1,3-thiazol-4-yl]phenyl}-3-furansulfonamide]						
	O=S(=O)(Nc1cccc(-c2nc(C3CCOCC3)sc2-c2ccnc(NCCO)n2)c1F)c1ccoc1 [Example 300, N-{2-fluoro-3-[5-{2-[(2-hydroxyethyl)amino]-4-pyrimidinyl}-2-(tetrahydro-2H-pyran-4-yl)-1,3-thiazol-4-yl]phenyl}-3-furansulfonamide]		≤ 3.16 nM				
	CC(C)(C)c1nc(-c2cccc(NS(=O)(=O)c3ccco3)c2F)c(-c2ccnc(N)n2)o1 [Example 298, N-{3-[5-(2-amino-4-pyrimidinyl)-2-(1,1-dimethylethyl)-1,3-oxazol-4-yl]-2-fluorophenyl}-2-furansulfonamide]		≤ 3.16 nM				

Structure (SMILES)	IC50 [1, 10]	IC50 [1, 4]	IC50 [1, 5]	IC50 [2, 6]	IC50 [2, 7]	IC50 [3, 8]	IC50 [3, 9]
CC(C)(C)c1nc(-c2ccc(F)c(NS(=O)(=O)c3c(F)cccc3F)c2)c(-c2ccnc(NCCS(C)(=O)=O)n2)s1 [Example 10, N-{5-[2-(1,1-Dimethylethyl)-5-(2-{[2-(methylsulfonyl)ethyl]amino}-4-pyrimidinyl)-1,3-thiazol-4-yl]-2-fluorophenyl}-2,6-difluorobenzenesulfonamide]	3.16 to 31.6 nM	< 100 nM					
